Series [1] concerns Staphylococcus aureus 209P. Put plainly: MIC, Staphylococcus aureus 209P. The class given is cell-based. As to conditions: read-out: MIC (Minimal Inhibitory Concentration). As to the method:
(§1) The carbapenem compounds obtained in Examples 3, 5 and 8 were evaluated for antimicrobial activity, the integrated value of a concentration in blood (Area Under the Curve: AUC), recovery from urine and decomposition by human kidney dehydropeptidase-1 by using imipenem, meropenem and cephalosporin derivatives (A) and (B) as controls.
(§2) 1) MIC (Minimal Inhibitory Concentration) (γ/ml):
(§3) Antimicrobial activity was evaluated by using MIC.

In another series the test system is Entercoccus SR1004. The series can be described thus: MIC, Entercoccus SR1004. It is filed as cell-based. As to conditions: read-out: MIC (Minimal Inhibitory Concentration). As to the method:
as §1, §2, §3

Series [2] has as its system Pseudomonas aeruginosa SR1012. Put plainly: MIC, Pseudomonas aeruginosa SR1012. The class given is cell-based. As to the method:
as §1, §2, §3

Series [3] is described as follows: in vivo. As to conditions: mouse, iv. As to the method:
as §1
2) Concentration in Blood (γ/ml):
Each compound was intravenously injected into a mouse, and the concentration in the blood 15 minutes after the injection was measured.
3) Recovery from Urine (%):
Each compound was intravenously injected into a mouse and a monkey, and the content in the urine 24 hours after the injection was measured. A rate of recovery was obtained from the content.

Series [4] is described as follows: in vivo. The note with it: monkey, iv.
The next series is described as follows: in vitro. It is filed as in vitro ADME, human. The note with it: human, kidney dehydropeptidase-1. As to the method:
as §1

Series [5] relates to human kidney dehydropeptidase-1. Put plainly: in vitro. It is filed as in vitro ADME. As to the method:
as §1

Series [6] has as its system Gram-positive bacteria and Gram-negative bacteria. The series can be described thus: Antimicrobial activity against Gram-positive and Gram-negative bacteria (overall). The class given is cell-based. As to conditions: as compared with imipenem, meropenem and cephalosporin derivatives (A) and (B); in words. As to the method: as §1, §2, §3
Where [7] appears, read: Pseudomonas aeruginosa SR1012, read-out: MIC (Minimal Inhibitory Concentration).

In brackets after ≈: the same amount, converted by molar mass. Counter-ions that a name gives are not always drawn. Like-named read-outs stand apart in the source and are kept apart here.

Consider `CN1CCC(C2=C(C(=O)O)N3C(=O)C(NC(=O)C(=NO)c4csc(N)n4)C3SC2)O1` (stereo not drawn) [Cephalosporin (A)], for which the MIC in series [1] (Staphylococcus aureus 209P) was 0.78 µg/mL (≈ 1.72 µM).
As for `C[N+]1(C)CCC(C2=C(C(=O)[O-])N3C(=O)C(NC(=O)C(=NO)c4csc(N)n4)C3SC2)O1` (stereo not drawn) [Cephalosporin (B)], in series [1] (Staphylococcus aureus 209P), the MIC was determined as 0.2 µg/mL (≈ 0.427 µM).
The AUC is concentration integrated over time. Take `C[C@H]1C([C@H]2CC[N+](C)(C)O2)=C(C(=O)[O-])N2C(=O)[C@H]([C@@H](C)O)C12` (stereo partly drawn) [Example 3, (1S,6S)-6-((R)-1-hydroxyethyl)-2-((5R)-2,2-dimethylisoxazolidinio-5-yl)-1-methyl-1-carba-2-penem-3-carboxylate]: the MIC came out at 0.0125 µg/mL (≈ 0.0403 µM) in series [1] (Staphylococcus aureus 209P), 0.78 µg/mL (≈ 2.51 µM) in the series with Entercoccus SR1004 (Entercoccus SR1004) and 0.78 µg/mL (≈ 2.51 µM) in series [2] (setting [7]). Besides, the AUC turned out to be 19000 ng·h/mL in “in vivo [3]” and 35200 ng·h/mL in the series “in vivo [4]”. Besides, the concentration at 0.25 h in “in vivo [3]” was 36300 ng/mL. The same molecule returned a metabolised in “in vitro” of 97%. In addition, in series [5], the “hydrolysis rate in the body” value is recorded as “low hydrolysis rate”. In addition, the “antimicrobial activity against Gram-positive bacteria and Gram-negative bacteria” value (from here on “antimicrobial activity”) in series [6] is given as “excellent antimicrobial activity”.
For the molecule `C[C@H]1C([C@@H]2CC[N+](C)(C)O2)=C(C(=O)[O-])N2C(=O)[C@H]([C@@H](C)O)C12` (stereo partly drawn) [Example 5, (1S,6S)-6-((R)-1-hydroxyethyl)-2-((5S)-2,2-dimethylisoxazolidinio-5-yl)-1-methyl-1-carba-2-penem-3-carboxylate], the results for the MIC (in series [1] (Staphylococcus aureus 209P); in the series on Entercoccus SR1004 (Entercoccus SR1004); in series [2] (setting [7])) were 0.0125 µg/mL (≈ 0.0403 µM), 0.78 µg/mL (≈ 2.51 µM) and 1.56 µg/mL (≈ 5.03 µM), respectively. Also, the “hydrolysis rate in the body” value in series [5] is on record as “low hydrolysis rate”. Besides, the “antimicrobial activity” value in series [6] is on record as “excellent antimicrobial activity”.
Take `C[C@H]1C([C@@H]2CCN(C)O2)=C(C(=O)O)N2C(=O)[C@H]([C@@H](C)O)C12` (stereo partly drawn) [Example 8, sodium (1S,6S)-6-((R)-l-hydroxyethyl)-1-methyl-2-((5S)-2-methylisoxazolidine-5-yl)-1-carba-2-penem-3-carboxylate salt]: the MIC in series [1] (Staphylococcus aureus 209P) was 0.1 µg/mL. Besides, the “hydrolysis rate in the body” value in series [5] was “low hydrolysis rate”. Besides, the “antimicrobial activity” value in series [6] is recorded as “excellent antimicrobial activity”.
Regarding `C[C@@H](O)[C@H]1C(=O)N2C(C(=O)O)=C(SCCN=CN)C[C@H]12` [Imipenen, imipenem], the MIC came to 0.0125 µg/mL (≈ 0.0418 µM) in series [1] (Staphylococcus aureus, 209P); 1.56 µg/mL (≈ 5.21 µM) in the series with Entercoccus SR1004; 1.56 µg/mL (≈ 5.21 µM) in series [2] (Pseudomonas aeruginosa, SR1012, read-out: MIC (Minimal Inhibitory Concentration)). The exposure (AUC) in “in vivo [3]” was 8800 ng·h/mL; in “in vivo [4]”, 13300 ng·h/mL. The molecule also displayed a concentration at 0.25 h in “in vivo [3]” of 20600 ng/mL. In the series “in vitro”, this molecule gave a metabolised of 73%.
As to `C[C@@H](O)[C@H]1C(=O)N2C(C(=O)O)=C(S[C@@H]3CN[C@H](C(=O)N(C)C)C3)[C@H](C)[C@H]12` [Meropenen, meropenem], the figures for the MIC (in series [1] (Staphylococcus aureus 209P); in the series on Entercoccus SR1004 (Entercoccus SR1004); in series [2] (setting [7])) were 0.1 µg/mL (≈ 0.261 µM), 6.25 µg/mL (≈ 16.3 µM) and 0.78 µg/mL (≈ 2.03 µM), respectively. Further, the AUC is 5200 ng·h/mL in “in vivo [3]” and 17200 ng·h/mL in the series “in vivo [4]”. This molecule also returned a concentration at 0.25 h in the series “in vivo [3]” of 13700 ng/mL. The same molecule gave a metabolised in “in vitro” of 87%.
